Measured values: patent publication US10822348B2, “Inhibitors of Bruton's tyrosine kinase and methods of their use” (JANSSEN PHARMACEUTICA NV, priority 2015, dated 2020)

Molecular target: unphosphorylated-BTK kinase domain (UP-BTK), GST-tagged human BTK (389-659aa) (Homo sapiens (Human), UniProt Q06187)
Assay: BTK kinase Lanthascreen binding assay
Settings: negative log of the IC50 in molar; 60 minutes incubation, 50 nM Tracer 236
Protocol: BTK Kinase Lanthascreen Binding Assay:
A BTK kinase lanthascreen binding assay monitors compound binding to unphosphorylated-BTK kinase domain (UP-BTK), by competing with a fluorescent labeled tracer. […] Data were analyzed using Xlfit™ version 5.3 from ID Business Solutions (Guildford), Microsoft Excel add-in. pIC50 refers to the negative log of the IC50 in molar.

Chain of unphosphorylated-BTK kinase domain (UP-BTK), GST-tagged human BTK (389-659aa) (Q06187 389-659): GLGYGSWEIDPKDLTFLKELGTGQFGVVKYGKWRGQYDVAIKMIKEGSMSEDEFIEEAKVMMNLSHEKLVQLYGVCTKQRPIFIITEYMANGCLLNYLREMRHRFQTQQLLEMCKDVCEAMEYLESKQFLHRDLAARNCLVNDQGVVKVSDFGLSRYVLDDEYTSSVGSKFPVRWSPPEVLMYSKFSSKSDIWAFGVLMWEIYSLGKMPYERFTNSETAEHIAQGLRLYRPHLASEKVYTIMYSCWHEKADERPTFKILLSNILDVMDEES

BTK_I_binding pIC50	Compound
6.9	Cc1cc(Oc2ccccc2)ccc1N1C(=O)Nc2c(C(=O)N[C@@H]3CCCN(C(=O)/C(C#N)=C/C(C)(C)N4CCOCC4)C3)sc3nccc1c23 (single isomer, unassigned) [Example 112, (R,E)-N-(1-(2-Cyano-4-methyl-4-morpholinopent-2-enoyl)piperidin-3-yl)-5-(*R)-(2-methyl-4-phenoxyphenyl)-4-oxo-4,5-dihydro-3H-1-thia-3,5,8-triazaacenaphthylene-2-carboxamide]
7.4	Cc1cc(Oc2ccccc2)ccc1N1C(=O)Nc2c(C(=O)N[C@@H]3CCN(C)C3)sc3nccc1c23 (single isomer, unassigned) [Example 147, (R)-5-(*S)-(2-Methyl-4-phenoxyphenyl)-N-(1-methylpyrrolidin-3-yl)-4-oxo-4,5-dihydro-3H-1-thia-3,5,8-triazaacenaphthylene-2-carboxamide]
6.4	C=CC(=O)N1CC[C@@H](NC(=O)c2sc3nccc4c3c2NC(=O)N4c2ccc(Oc3ccccc3)cc2C)C1 (single isomer, unassigned) [Example 169, (R)—N-(1-Acryloylpyrrolidin-3-yl)-5-(*R)-(2-methyl-4-phenoxyphenyl)-4-oxo-4,5-dihydro-3H-1-thia-3,5,8-triazaacenaphthylene-2-carboxamide]
7.4	N#C/C(=C\C1CC1)C(=O)N1CCC[C@@H](NC(=O)c2sc3nccc4c3c2NC(=O)N4c2c(Cl)ccc3c2OCO3)C1 (single isomer, unassigned) [Example 239]
6.3	Cc1cc(Oc2ccccc2)ccc1N1C(=O)Nc2c(C(=O)N[C@H]3CCCOC3)sc3nccc1c23 (single isomer, unassigned) [Example 267, (S)-5-(*R)-(2-Methyl-4-phenoxyphenyl)-4-oxo-N-(tetrahydro-2H-pyran-3-yl)-4,5-dihydro-3H-1-thia-3,5,8-triazaacenaphthylene-2-carboxamide]

Compound	BTK_I_binding pIC50
Cc1cc(Oc2ccccc2)ccc1N1C(=O)Nc2c(C(=O)N[C@@H]3CCCN(C)C3)sc3nccc1c23 (single isomer, unassigned) [Example 127, (R)-5-(*S)-(2-Methyl-4-phenoxyphenyl)-N-(1-methylpiperidin-3-yl)-4-oxo-4,5-dihydro-3H-1-thia-3,5,8-triazaacenaphthylene-2-carboxamide]	7.3
Cc1cc(Oc2ccccc2)ccc1N1C(=O)Nc2c(C(=O)N[C@@H]3CCCN(C)C3)sc3nccc1c23 (single isomer, unassigned) [Example 180, (R)-5-(*R)-(2-Methyl-4-phenoxyphenyl)-N-(1-methylpiperidin-3-yl)-4-oxo-4,5-dihydro-3H-1-thia-3,5,8-triazaacenaphthylene-2-carboxamide]	6.0
Cc1cc(Oc2ccccc2)ccc1N1C(=O)Nc2c(C(=O)N[C@H]3CCCN(C)C3)sc3nccc1c23 (single isomer, unassigned) [Example 249, (S)-5-(*S)-(2-Methyl-4-phenoxyphenyl)-N-(1-methylpiperidin-3-yl)-4-oxo-4,5-dihydro-3H-1-thia-3,5,8-triazaacenaphthylene-2-carboxamide]	6.6

Same assay, conditions: unphosphorylated-BTK kinase domain; 60 minutes incubation; pIC50 = negative log of the IC50 in molar

BTK_I_binding pIC50	Compound
6.0	Cc1cc(Oc2ccccc2)ccc1N1C(=O)Nc2c(C(=O)N[C@@H]3CCCOC3)sc3nccc1c23 (single isomer, unassigned) [Example 307, (R)-5-(*R)-(2-Methyl-4-phenoxyphenyl)-4-oxo-N-(tetrahydro-2H-pyran-3-yl)-4,5-dihydro-3H-1-thia-3,5,8-triazaacenaphthylene-2-carboxamide]
7.1	C=CC(=O)N1CCC[C@@H](NC(=O)c2sc3nccc4c3c2NC(=O)N4c2c(Cl)ccc3c2OCO3)C1 (single isomer, unassigned) [Example 321, (R)—N-(1-Acryloylpiperidin-3-yl)-5-(*R)-(5-chlorobenzo[d][1,3]dioxol-4-yl)-4-oxo-4,5-dihydro-3H-1-thia-3,5,8-triazaacenaphthylene-2-carboxamide]
5.7	Cc1cc(Oc2ccccc2)ccc1N1C(=O)Nc2c(C(=O)N[C@@H]3CCCN(C#N)C3)sc3nccc1c23 (single isomer, unassigned) [Example 329, (R)—N-(1-Cyanopiperidin-3-yl)-5-(*R)-(2-methyl-4-phenoxyphenyl)-4-oxo-4,5-dihydro-3H-1-thia-3,5,8-triazaacenaphthylene-2-carboxamide]
5.3	Cc1cc(OC2CCOCC2)ccc1N1C(=O)Nc2c(C(=O)N[C@@H]3CCCN(C)C3)sc3nccc1c23 (single isomer, unassigned) [Example 343, (R)-5-(*R)-(2-Methyl-4-((tetrahydro-2H-pyran-4-yl)oxy)phenyl)-N-(1-methylpiperidin-3-yl)-4-oxo-4,5-dihydro-3H-1-thia-3,5,8-triazaacenaphthylene-2-carboxamide]
5.8	CN1CCC[C@@H](NC(=O)c2sc3nccc4c3c2NC(=O)N4c2c(Cl)ccc3c2OCO3)C1 (single isomer, unassigned) [Example 353, (R)-5-(*R)-(5-Chlorobenzo[d][1,3]dioxol-4-yl)-N-(1-methylpiperidin-3-yl)-4-oxo-4,5-dihydro-3H-1-thia-3,5,8-triazaacenaphthylene-2-carboxamide]
7.1	C=C(Cl)C(=O)N1CCC[C@@H](NC(=O)c2sc3nccc4c3c2NC(=O)N4c2ccc(Oc3ccccc3)cc2C)C1 (single isomer, unassigned) [Example 366, (R)—N-(1-(2-Chloroacryloyl)piperidin-3-yl)-5-(*S)-(2-methyl-4-phenoxyphenyl)-4-oxo-4,5-dihydro-3H-1-thia-3,5,8-triazaacenaphthylene-2-carboxamide]
6.2	Cc1cc(Oc2ccccc2)ccc1N1C(=O)Nc2c(C(=O)N[C@@H]3CCCN(C(=O)/C=C/CN)C3)sc3nccc1c23 (single isomer, unassigned) [Example 367, (R,E)-N-(1-(4-Aminobut-2-enoyl)piperidin-3-yl)-5-(*R)-(2-methyl-4-phenoxyphenyl)-4-oxo-4,5-dihydro-3H-1-thia-3,5,8-triazaacenaphthylene-2-carboxamide]
5.9	C=CC(=O)N1CCC[C@@H](NC(=O)c2sc3nccc4c3c2NC(=O)N4c2ccc(OC(C)C)cc2C)C1 (single isomer, unassigned) [Example 417, (R)—N-(1-Acryloylpiperidin-3-yl)-5-(*S)-(4-isopropoxy-2-methylphenyl)-4-oxo-4,5-dihydro-3H-1-thia-3,5,8-triazaacenaphthylene-2-carboxamide]
7.8	C=CC(=O)N1CCC[C@@H](NC(=O)c2sc3nccc4c3c2NC(=O)N4c2ccc(OC(C)C)cc2C)C1 (single isomer, unassigned) [Example 418, (R)—N-(1-Acryloylpiperidin-3-yl)-5-(*R)-(4-isopropoxy-2-methylphenyl)-4-oxo-4,5-dihydro-3H-1-thia-3,5,8-triazaacenaphthylene-2-carboxamide]
7.8	CCOC(C)(C)/C=C(\C#N)C(=O)N1CCC[C@@H](NC(=O)c2sc3nccc4c3c2NC(=O)N4c2ccc(Oc3ccccc3)cc2C)C1 (single isomer, unassigned) [Example 478, (R,*E)-N-(1-(2-Cyano-4-ethoxy-4-methylpent-2-enoyl)piperidin-3-yl)-5-(*S)-(2-methyl-4-phenoxyphenyl)-4-oxo-4,5-dihydro-3H-1-thia-3,5,8-triazaacenaphthylene-2-carboxamide]

Continued, compound first:

Compound	BTK_I_binding pIC50
Cc1cc(Oc2ccccc2)ccc1N1C(=O)Nc2c(C(=O)N[C@@H]3CCCN(C(=O)CN(C)C)C3)sc3nccc1c23 (single isomer, unassigned) [Example 287, (R)—N-(1-(2-(Dimethylamino)acetyl)piperidin-3-yl)-5-(*R)-(2-methyl-4-phenoxyphenyl)-4-oxo-4,5-dihydro-3H-1-thia-3,5,8-triazaacenaphthylene-2-carboxamide]	6.2
C=CC(=O)N1CCC[C@H](NC(=O)c2sc3nccc4c3c2NC(=O)N4c2ccc(Oc3ccccc3)cc2C)C1 (single isomer, unassigned) [Example 289, (S)—N-(1-Acryloylpiperidin-3-yl)-5-(*R)-(2-methyl-4-phenoxyphenyl)-4-oxo-4,5-dihydro-3H-1-thia-3,5,8-triazaacenaphthylene-2-carboxamide]	6.2
CNC/C=C/C(=O)N1CCC[C@@H](NC(=O)c2sc3nccc4c3c2NC(=O)N4c2ccc(Oc3ccccc3)cc2C)C1 (single isomer, unassigned) [Example 292, (R,E)-5-(*R)-(2-Methyl-4-phenoxyphenyl)-N-(1-(4-(methylamino)but-2-enoyl)piperidin-3-yl)-4-oxo-4,5-dihydro-3H-1-thia-3,5,8-triazaacenaphthylene-2-carboxamide]	6.1
Cc1cc(Oc2ccccc2)ccc1N1C(=O)Nc2c(C(=O)N[C@@H]3CCCNC3)sc3nccc1c23 (single isomer, unassigned) [Example 300, (R)-5-(*R)-(2-methyl-4-phenoxyphenyl)-4-oxo-N-(piperidin-3-yl)-4,5-dihydro-3H-1-thia-3,5,8-triazaacenaphthylene-2-carboxamide]	6.0
Cc1cc(Oc2ccccc2)ccc1N1C(=O)Nc2c(C(=O)N[C@H]3CCCN(C)C3)sc3nccc1c23 (single isomer, unassigned) [Example 339, (S)-5-(*R)-(2-Methyl-4-phenoxyphenyl)-N-(1-methylpiperidin-3-yl)-4-oxo-4,5-dihydro-3H-1-thia-3,5,8-triazaacenaphthylene-2-carboxamide]	5.4
